What was measured:
[1] = system: primary CD4+ T cells; assay: Primary CD4+ T cell model of HIV-1 latency, p24 ICS; type: cell-based, human; settings: primary CD4+ T cells infected with HIV ADA; PMA 100 ng/ml; TGF-β1 10 ng/ml or galunisertib 1 μM
Protocol: Next, the impact of TGF-β1 on a primary model of HIV-1 latency was tested using freshly isolated CD4+ T cells. The experiment was based on the model by Berkhout and colleagues (50) with some modifications (FIG. 1F). Specifically, CD4+ T cells were isolated from HIV-1 uninfected, de-identified donor PBMC and activated them with PHA and IL-2 for 3 days before infection via spinoculation with HIV ADA. After extensive wash of the viral inoculum, cells were cultured 48 hrs in presence of T20 (enfuvirtide) to avoid viral spread beyond the cells with initial integrations. The overall initial infection achieved was very low despite the spinoculation step (˜0.1% of p24-gag+ cells, FIGS. 3A-3B).
Blood from de-identified donors was obtained from the New York Blood Bank and used as source of CD4 T cells for the primary model of HIV latency in vitro. Total CD4+ T cells were isolated with the CD4 T cells isolation kit (Miltenyi) and activated with 5 μg/ml of PHA and 50 U/ml of IL-2 for 3 days. After washing out the PHA, cells were infected with 200TCID50 of HIV-ADA (NIH HIV Reagent Program) in 12 or 24 wells/plates and spinoculated at 1200 g for 2 hrs at 25° C. After additional 3 hrs of incubation at 37° C., viral inoculum was washed and cells plated in presence of T20 (Enfurtivide acetate salt, 1 μM NIH AIDS reagent program). […]

[2] = system: SIVmac239 gag and env peptides; assay: Anti-SIV T cell responses, intracellular cytokine staining; type: in vivo, rhesus macaques; settings: before vs after treatment
Protocol: Frozen PBMC collected right before the first galunisertib administration and right after were thawed in AIM V medium (Thermo Fisher) plated on a plate pre-coated with 2.5 μg/ml goat anti mouse (GAM) IgGs and cross linked with 10 μg/ml anti-CD28 and anti-CD49d antibodies (Sigma Aldrich). Cells were stimulated either with SIVMAC239 GAG peptide pool (2 μg/ml) or with SIVMAC239 ENV peptide pool (2 μg/ml AIDS reagents program, Division of AIDS, NIAID, NIH) or the same volume of DMSO as baseline control. Pooled cells stimulated with 1 μg/ml PMA/Ionomycin were used a positive activation control. One hour later 10 μg/ml BFA and monensin (GolgiStop, BD Biosciences) were added to each well. After 5 hours, cells were transferred to a FACS plate and stained with the LIVE/DEAD Aqua viability dye (Thermo Fisher Scientific) and antibodies against cell surface and cytokines (Table 2).

[3] = system: SIV-env; assay: ImmunoPET/CT, four-cycle study; type: in vivo, rhesus macaques
Protocol: ImmunoPET/CT for mapping SIV signals in total body scans were conducted in part as reported previously (110). The probe consisted of primatized p7D3 anti-env F(ab)′2 coupled with the chelator DOTA and labeled with Cu64 just prior to administration to the animals. For probe administration, the animals were sedated, and a venous catheter was placed into an arm of leg vein to minimize bleeding of the probe into the tissue surrounding the site of injection. The probe for each animal consisted of ˜1 mg of the p7D3 F(ab)′2 labeled with 2-3 mCi of ^64Cu. After injection, the animals were allowed to recuperate in their cage until the next day. At 24 hours, the animals were again anesthetized with Telazol and the macaque's body was immobilized in dorsal recumbency on the scanner table. Scans were conducted 535 in a Phillips Gemini TF64 scanner. The final CT image was compiled from 200 to 300 slices, depending on macaque size. PET Image analysis was performed using the MIM software. PET/CT fusions were generated scaled according to calculated Standardized Uptake Values (SUV). The SUV scale for the PET scans was selected based on the overall signal intensity of the PET scans (whole body), and the CT scale was selected for optimal visibility of the tissues. All images and maximum image projections were set to the same scale for visual comparisons.
Multimodal registration and ROI segmentation were executed using the MIM software (MIM Software, Inc., Cleveland, OH) for PET and CT images, encompassing 250 to 300 fractions, depending on the macaque's body size. PET and CT images were fused to quantify changes in SUV (Standardized Uptake Value) within Regions of Interest (ROI), with PET SUV scale determined by overall signal intensity and CT scale optimized for tissue visibility. Segmentations were performed for various anatomical regions: Whole Body, Liver, Lymph nodes, Gut, Kidneys, Spleen, and Vertebrae. The external body was outlined for the Whole-Body contour, while the GRADIENT method PET-Edge and interactive contouring tools were employed for other ROIs. Liver segmentation initially utilized PET-Edge in PET coronal-sectional view, followed by interactive delineation for the structure and the corresponding signals. Kidneys, Spleen, and Vertebrae volume were determined based on CT scans in the cross-sectional view, incorporating PET signals into contours. […] To quantify the signal in the axillary lymph nodes, the data-point in each macaque featuring the strongest PET signal was chosen as a basis for an inhouse Multi-Time-Point Contour Transfer Workflow, followed by interactive contouring of the signal to all time points. The workflow integrated CT scans to establish and map specific ROIs in subsequent scans, thereby accounting for any changes in the animal's orientation at other time points through manual adjustments. To quantify the signal in the gut tissue, the body segment below the stomach to above the cervix was initially isolated. The Gut's SUV was then calculated by extracting the spleen, both kidneys, liver, and bones within the designated body region using Boolean operations.

Cc1cccc(-c2nn3c(c2-c2ccnc4ccc(C(N)=O)cc24)CCC3)n1 [galunisertib, Galunisertib]
PMA-induced frequency of p24-gag+ cells [1]: did not alter | frequency of cells producing multiple cytokines [2]: no increase | frequency of IFN-γ producing CD4 and CD8 T cells ([2]; gag and env peptides stimulation): significant increase | SIV reactivation in tissues by PET/CT ([3]; Example 5, all macaques, particularly after cycle 2): Extensive SIV reactivation | SUV increase in gastrointestinal area and axillary lymph nodes ([3]; compared to before cycle 1 (BC1)): significant in cycle 3 | SUV at the level of the spleen or kidney ([3]; vs BC1): No SUV increase | SUV in the liver and whole-body ([3]; vs BC1): significant increase in SUV | Spine SUV ([3]; vs BC1): increased significantly with the first cycle

— US20240197712A1, “TGF-BETA INHIBITION FOR IMMUNODEFICIENCY VIRUS REACTIVATION FROM LATENCY, ENHANCEMENT OF IMMUNODEFICIENCY VIRUS-SPECIFIC RESPONSES AND IMMUNODEFICIENCY VIRUS CURE” (Northwestern University, priority 2022, published 2024)
